pKi: −log10 of the molar value. Non-standard residues stand in square brackets, D forms with d. Residues, ends and D or L forms follow the SMILES beside them. ξ: configuration not given here. Ile(3ξ) = CCC(C)[C@H](N)C(=O)O

For this assay, the target named is T1, Pituitary adenylate cyclase-activating polypeptide (Homo sapiens, UniProt P18509).
T1 sequence (P18509 whole entry): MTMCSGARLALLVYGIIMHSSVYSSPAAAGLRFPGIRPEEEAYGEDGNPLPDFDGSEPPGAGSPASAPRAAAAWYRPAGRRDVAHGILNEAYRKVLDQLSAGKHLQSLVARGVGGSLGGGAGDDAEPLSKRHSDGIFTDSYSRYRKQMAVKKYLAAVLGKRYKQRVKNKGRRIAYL
`CSCC[C@H](NC(=O)[C@H](CCC(N)=O)NC(=O)[C@H](CCCCN)NC(=O)[C@H](CCCNC(=N)N)NC(=O)[C@H](Cc1ccc(O)cc1)NC(=O)[C@H](CCCNC(=N)N)NC(=O)[C@H](CO)NC(=O)[C@H](Cc1ccc(O)cc1)NC(=O)[C@H](CO)NC(=O)[C@H](CC(=O)O)NC(=O)[C@@H](NC(=O)[C@@H](N)Cc1ccccc1)[C@@H](C)O)C(=O)N[C@@H](C)C(=O)N[C@H](C(=O)N[C@@H](CCCCN)C(=O)N[C@@H](CCCCN)C(=O)N[C@@H](Cc1ccc(O)cc1)C(=O)N[C@@H](CC(C)C)C(=O)N[C@@H](C)C(=O)N[C@@H](C)C(=O)N[C@H](C(=O)N[C@@H](CC(C)C)C(=O)NCC(=O)N[C@@H](CCCCN)C(=O)N[C@@H](CCCNC(=N)N)C(=O)N[C@@H](Cc1ccc(O)cc1)C(=O)N[C@@H](CCCCN)C(=O)N[C@@H](CCC(N)=O)C(=O)N[C@@H](CCCNC(=N)N)C(=O)N[C@H](C(=O)N[C@@H](CCCCN)C(=O)N[C@@H](CC(N)=O)C(=O)N[C@@H](CCCCN)C(N)=O)C(C)C)C(C)C)C(C)C`: the pKi is 8.82.
In turn, `CCC(C)[C@H](NC(=O)CNC(=O)[C@H](CC(=O)O)NC(=O)[C@H](Cc1ccccc1)NC(=O)[C@@H](N)Cc1cnc[nH]1)C(=O)N[C@@H](Cc1ccccc1)C(=O)N[C@H](C(=O)N[C@@H](CC(=O)O)C(=O)N[C@@H](CO)C(=O)N[C@@H](Cc1ccc(O)cc1)C(=O)N[C@@H](CO)C(=O)N[C@@H](CCCN=C(N)N)C(=O)N[C@@H](Cc1ccc(O)cc1)C(=O)N[C@@H](CCCN=C(N)N)C(=O)N[C@@H](CCCCN)C(=O)N[C@@H](CCC(N)=O)C(=O)N[C@@H](CCSC)C(=O)N[C@@H](C)C(=O)N[C@H](C(=O)N[C@@H](CCCCN)C(=O)N[C@@H](CCCCN)C(=O)N[C@@H](Cc1ccc(O)cc1)C(=O)N[C@@H](CC(C)C)C(=O)N[C@@H](C)C(=O)N[C@@H](C)C(=O)N[C@H](C(=O)N[C@@H](CC(C)C)C(=O)NCC(=O)N[C@@H](CCCCN)C(=O)N[C@@H](CCCN=C(N)N)C(=O)N[C@@H](Cc1ccc(O)cc1)C(=O)N[C@@H](CCCCN)C(=O)N[C@@H](CCC(N)=O)C(=O)N[C@@H](CCCN=C(N)N)C(=O)N[C@H](C(=O)N[C@@H](CCCCN)C(=O)N[C@@H](CC(N)=O)C(=O)N[C@@H](CCCCN)C(N)=O)C(C)C)C(C)C)C(C)C)[C@@H](C)O` (some centres undefined) [[Phe2]PACAP(1-38)] (H-HFDG[Ile(3ξ)]FTDSYSRYRKQMAVKKYLAAVLGKRYKQRVKNK-NH2) showed a pKi of 8.00. Against the preceding molecule, the pKi is 0.82 log units lower.
As for “H-FTDSYSRYRKQMAVKKYLAAVL-NH2 [PACAP(5-27)]”, the figure is 7.22.
The molecule “H-TDSYSRYRKQMAVKKYLAAVLGKRYKQRVKNK-NH2 [PACAP(7-38)]” had a pKi of 8.10.
As for “H-TDSYSRYRKQMAVKKYLAAVL-NH2 [PACAP(6-27)]”, the figure is 6.70; as for `CCC(C)[C@H](NC(=O)CN)C(=O)N[C@@H](Cc1ccccc1)C(=O)N[C@H](C(=O)N[C@@H](CC(=O)O)C(=O)N[C@@H](CO)C(=O)N[C@@H](Cc1ccc(O)cc1)C(=O)N[C@@H](CO)C(=O)N[C@@H](CCCN=C(N)N)C(=O)N[C@@H](Cc1ccc(O)cc1)C(=O)N[C@@H](CCCN=C(N)N)C(=O)N[C@@H](CCCCN)C(=O)N[C@@H](CCC(N)=O)C(=O)N[C@@H](CCSC)C(=O)N[C@@H](C)C(=O)N[C@H](C(=O)N[C@@H](CCCCN)C(=O)N[C@@H](CCCCN)C(=O)N[C@@H](Cc1ccc(O)cc1)C(=O)N[C@@H](CC(C)C)C(=O)N[C@@H](C)C(=O)N[C@@H](C)C(=O)N[C@H](C(=O)N[C@@H](CC(C)C)C(=O)NCC(=O)N[C@@H](CCCCN)C(=O)N[C@@H](CCCN=C(N)N)C(=O)N[C@@H](Cc1ccc(O)cc1)C(=O)N[C@@H](CCCCN)C(=O)N[C@@H](CCC(N)=O)C(=O)N[C@@H](CCCN=C(N)N)C(=O)N[C@H](C(=O)N[C@@H](CCCCN)C(=O)N[C@@H](CC(N)=O)C(=O)N[C@@H](CCCCN)C(N)=O)C(C)C)C(C)C)C(C)C)[C@@H](C)O` (some centres undefined) [PACAP(4-38)] (H-G[Ile(3ξ)]FTDSYSRYRKQMAVKKYLAAVLGKRYKQRVKNK-NH2), 8.30.
In the case of `CCC(C)[C@H](NC(=O)CNC(=O)[C@H](CC(=O)O)NC(=O)[C@H](Cc1ccccc1)NC(=O)[C@H](Cc1cnc[nH]1)NC(C)=O)C(=O)N[C@@H](Cc1ccccc1)C(=O)N[C@H](C(=O)N[C@@H](CC(=O)O)C(=O)N[C@@H](CO)C(=O)N[C@@H](Cc1ccc(O)cc1)C(=O)N[C@@H](CO)C(=O)N[C@@H](CCCN=C(N)N)C(=O)N[C@@H](Cc1ccc(O)cc1)C(=O)N[C@@H](CCCN=C(N)N)C(=O)N[C@@H](CCCCN)C(=O)N[C@@H](CCC(N)=O)C(=O)N[C@@H](CCSC)C(=O)N[C@@H](C)C(=O)N[C@H](C(=O)N[C@@H](CCCCN)C(=O)N[C@@H](CCCCN)C(=O)N[C@@H](Cc1ccc(O)cc1)C(=O)N[C@@H](CC(C)C)C(=O)N[C@@H](C)C(=O)N[C@@H](C)C(=O)N[C@H](C(=O)N[C@@H](CC(C)C)C(N)=O)C(C)C)C(C)C)[C@@H](C)O` (some centres undefined) [[AcHis1,Phe2]PACAP(1-27)], the pKi was 7.00.
Regarding `CCC(C)[C@H](N)C(=O)N[C@@H](Cc1ccccc1)C(=O)N[C@H](C(=O)N[C@@H](CC(=O)O)C(=O)N[C@@H](CO)C(=O)N[C@@H](Cc1ccc(O)cc1)C(=O)N[C@@H](CO)C(=O)N[C@@H](CCCN=C(N)N)C(=O)N[C@@H](Cc1ccc(O)cc1)C(=O)N[C@@H](CCCN=C(N)N)C(=O)N[C@@H](CCCCN)C(=O)N[C@@H](CCC(N)=O)C(=O)N[C@@H](CCSC)C(=O)N[C@@H](C)C(=O)N[C@H](C(=O)N[C@@H](CCCCN)C(=O)N[C@@H](CCCCN)C(=O)N[C@@H](Cc1ccc(O)cc1)C(=O)N[C@@H](CC(C)C)C(=O)N[C@@H](C)C(=O)N[C@@H](C)C(=O)N[C@H](C(=O)N[C@@H](CC(C)C)C(=O)NCC(=O)N[C@@H](CCCCN)C(=O)N[C@@H](CCCN=C(N)N)C(=O)N[C@@H](Cc1ccc(O)cc1)C(=O)N[C@@H](CCCCN)C(=O)N[C@@H](CCC(N)=O)C(=O)N[C@@H](CCCN=C(N)N)C(=O)N[C@H](C(=O)N[C@@H](CCCCN)C(=O)N[C@@H](CC(N)=O)C(=O)N[C@@H](CCCCN)C(N)=O)C(C)C)C(C)C)C(C)C)[C@@H](C)O` (some centres undefined) [PACAP(5-38)] (H-[Ile(3ξ)]FTDSYSRYRKQMAVKKYLAAVLGKRYKQRVKNK-NH2), the pKi was 8.30. Against the preceding molecule, the pKi is 1.30 log units higher.
For `CCC(C)[C@H](NC(=O)CNC(=O)[C@@H](N)CC(=O)O)C(=O)N[C@@H](Cc1ccccc1)C(=O)N[C@H](C(=O)N[C@@H](CC(=O)O)C(=O)N[C@@H](CO)C(=O)N[C@@H](Cc1ccc(O)cc1)C(=O)N[C@@H](CO)C(=O)N[C@@H](CCCN=C(N)N)C(=O)N[C@@H](Cc1ccc(O)cc1)C(=O)N[C@@H](CCCN=C(N)N)C(=O)N[C@@H](CCCCN)C(=O)N[C@@H](CCC(N)=O)C(=O)N[C@@H](CCSC)C(=O)N[C@@H](C)C(=O)N[C@H](C(=O)N[C@@H](CCCCN)C(=O)N[C@@H](CCCCN)C(=O)N[C@@H](Cc1ccc(O)cc1)C(=O)N[C@@H](CC(C)C)C(=O)N[C@@H](C)C(=O)N[C@@H](C)C(=O)N[C@H](C(=O)N[C@@H](CC(C)C)C(N)=O)C(C)C)C(C)C)[C@@H](C)O` (some centres undefined) [PACAP(3-27)] (H-DG[Ile(3ξ)]FTDSYSRYRKQMAVKKYLAAVL-NH2), the pKi is 6.70.

These data come from BindingDB's records for doi:10.1111/j.1432-1033.1992.tb17043.x (Universit&Eacute, 1992).
